Experimental data reported in patent US5081253A, “Imidazo(4,5-C)pyridines as antiosteoporotic agents” (American Home Products Corporation, priority 1990, dated 1992).

What was measured:
[1] = tested on: osteopenia induced by denervation of the sciatic nerve in rats; assay: Denervation Induced Osteopenia in Rats; type: in vivo, rat (female Sprague Dawley CD)
Description: The purpose of this assay is to evaluate the effect, in rats, of agents on the reduction in bone mass (osteopenia) induced by immobilization resulting from surgical severance (denervation) of the sciatic nerve.
The animals are housed in plastic cages (4 or 5 rats/cage) with food (rat purina 500 chow) and water ad libitum; 14/10 day/night cycle.
After one week of in-house acclimatization, the animals are randomly divided into groups of 6 to 10 rats/group. Each rat is weighed, anesthetized with an intraperitoneal administration of 100 mg/kg ketamine (Bristol Laboratories, Syracuse, N.Y.) and 0.75 mg/kg Acepromazine (Aveco, Ft. Dodge, Iowa). The left hind limb is shaved and denervated by making a lateral incision parallel to the femur and by surgically removing half of a centimeter of the sciatic nerve adjacent to caudofemoralis and adductor brevis muscles. The incision is closed with wound clips. After surgery, the rats are housed in cages with absorbent bedding to minimize additional trauma to the immobilized limb. A 24 hour post-surgery recovery period is allowed before the initiation of the drug treatment.
The concentration of the drug stock is calculated to be delivered in a volume of 0.1 mL/100 gram body weight. The drug solution or a uniform suspension is prepared in 1% Tween 80 in normal saline. The drugs are administered via oral or parenteral routes daily (five times a week) for four weeks.
A sequential triple labeling of mineralized tissue is employed to determine the osseous changes (especially the bone formation) and the mineralization rates. Each animal is administered 90 mg/kg Xylenol orange (Fisher Scientific Company), S.C., 15 mg/kg Calcein (Sigma Chemical Company), S.C. and 15 mg/kg Demeclocycline (Sigma Chemical Company), i.p., approximately 21 days, 10 days and 2 days prior to the termination of the study, respectively.
At the end of the fourth week, each rat is weighed, anesthetized with an intraperitoneal administration of 100 mg/kg ketamine with 0.75 mg/kg Acepromazine and approximately 4 mL of blood collected via cardiac puncture. The anesthetized rats are euthanized by exposure to carbon dioxide. The femora and tibiae from both limbs are dissected free of soft tissue. (i) Femora are ashed at ~1100° C. for 16 hours using a muffle furnace. --(ii) Proximal tibia are fixed, dehydrated and embedded undecalcified in a methyl methacrylate-glycol methacrylate mixture. Longitudinal tissue sections (10 microns) are prepared on a Polycut S microtome (Reichert). Staining is performed on free-floating sections using a modified Goldner's stain, which are then mounted and coverslipped.
Cancellous bone content in the proximal tibia is quantified (as two dimensional bone mineral area [B.Ar]) with an image analysis processing device (software developed by Drexel University).
The areas of the tibia selected for cancellous bone content evaluation are the primary and secondary spongiosa. To select and standardize this area for evaluation, the epiphyseal growth plate-metaphyseal junction is oriented parallel to the abscissa of the digitizing screen. Bone elements 1.7 mm (secondary spongiosa) and 0.2 mm (primary spongiosa) from the growth plate and equidistant from the flanking cortical elements are then quantified as described above. The total area evaluated is 2.30 mm wide and 1.45 mm deep, constituting a 3.34 mm^2 area.
Body weight, femur mass (dried or ashed) and trabecular (cancellous) bone mineral area (B.Ar) are determined.
The difference (both absolute and percent change) in femur mass and bone mineral area between intact (control) and denervated limbs of a treatment group are compared with that for the vehicle group using a one-way analysis of variance with Dunnett's test, or other multiple comparison methods.
The results are reported in Table I and II under the heading In Vivo.

[2] = tested on: Rat Limb Bones (PTH induced bone resorption); assay: Bone Resorption Assay: 45Ca Release from Rat Limb Bones (PTH Induced); type: cell-based, rat (Sprague-Dawley CD)
Procedure: The purpose of this assay is to identify compounds that inhibit basal or stimulated bone resorption in culture.
The ability of 2-substituted-imidazo[4,5-c]pyridines to modify the process of bone resorption was evaluated essentially as described by L.G. Raisz, Bone resorption in tissue culture. Factors influencing the response to parathyroid hormone.
Timed pregnant Sprague-Dawley CD® rats (Charles River) are administered 100 μCi ^45 CaCl2 (NEN calcium -45 NEZ-013) in 100 μL of 0.9% saline, subcutaneously, on day 18 of gestation. The rats are sacrificed the following day by CO2 asphyxiation. The fetuses are removed and the right forelimbs excised and placed in a Petri dish containing ice cold explant medium consisting of modified BGJb -Fitton Jackson media (custom formulation, Gibco No. 78-0088) adjusted to pH 7.3 to which 10 mM TES is added. […] Under a dissecting microscope, the bones are gently cleaned of adherent tissue and the cartilaginous ends removed. Incubation and drug treatment. […] The preincubation medium is brought to 37° C. prior to transfer of bones. The preincubation medium consists of the modified BGJb medium (with salts and glucose as above), pH 7.3, containing 29 mM NaHCO3. […] For compounds that require nonaqueous solvents, dilutions are made from the appropriate stock solution with medium. In these instances, basal and bone resorption stimulated controls exposed to an equivalent concentration of the vehicle are included. […] The right ulna and radius from each fetus are used. Both bones are subjected to the same treatment and each treatment group consists of bones from 4 or more fetuses. Treatments are randomly assigned using a preclinical statistics program (PS-ALLOC). After a 48 hour incubation at 37° C. in 5% CO2, the bones are removed from the medium and extracted in 0.5 mL of 0.1N HCl for 1 or more days. Duplicate 150 μL aliquots of the incubation medium and the bone extract are analyzed for ^45 Ca radioactivity in 5 mL of liquid scintillation cocktail.
The percentage of bone ^45 Ca released into the medium is determined as follows: [formula] […]

[3] = Table II, 25 mg/kg, route not given
[4] = Table I, concentration not given

Compound | Inhibition of Bone Resorption, In Vivo [1, 3] | Inhibition of Bone Resorption, PTH Induced ([2]; Table II, 10 μg/mL) | also measured
N#Cc1ccccc1CSc1nc2cnccc2[nH]1 [Example 38, 2-[(1H-Imidazo[4,5-c]pyridin-2-ylthio)methyl]benzonitrile] | Inactive | Inactive | 
CCOc1cccc(CSc2nc3cnccc3[nH]2)c1 [Example 52, 2-[[(3-Ethoxyphenyl)methyl]thio]-1H-imidazo[4,5-c]pyridine] | Inactive | Inactive | 
[O-][S+](Cc1ccccc1F)c1nc2cnccc2[nH]1 (stereo not drawn) [Example 41, 2-[[(2-Fluorophenyl)methyl]sulfinyl]-1H-imidazo[4,5-c]pyridine Quarter Hydrate] |  |  | Inhibition of Bone Resorption, In Vivo ([1]; po, 672 h): Inactive; Inhibition of Bone Resorption, PTH Induced ([2]; Table I, 10 μg/mL): Active
[O-][S+](Cc1cccc(Oc2ccccc2)c1)c1nc2cnccc2[nH]1 (stereo not drawn) [Example 47, 2-[[(3-Phenoxyphenyl)methyl]sulfinyl]-1H-imidazo[4,5-c]pyridine] |  |  | Inhibition of Bone Resorption, In Vivo ([1]; po, 672 h): Inactive; Inhibition of Bone Resorption, PTH Induced ([2]; Table I, 10 μg/mL): Active
COc1ccccc1CSc1nc2cnccc2[nH]1 [Example 42, 2-[[(2-Methoxyphenyl)methyl]thio]-1H-imidazo[4,5-c]pyridine] |  | Active | 
2-[[(3,5-Dimethoxyphenyl)methyl]thio]-1H-imidazo[4,5-c]pyridine [Example 44] | Inactive | Active | 
c1ccc(Oc2cccc(CSc3nc4cnccc4[nH]3)c2)cc1 [Example 46, 2-[[(3-Phenoxyphenyl)methyl]thio]-1H-imidazo[4,5-c]pyridine] | Inactive | Inactive | 
CCOc1cccc(C[S+]([O-])c2nc3cnccc3[nH]2)c1 (stereo not drawn) [Example 53, 2-[[(3-Ethoxyphenyl)methyl]sulfinyl]-1H-imidazo[4,5-c]pyridine One Third Hydrate] |  |  | Inhibition of Bone Resorption, PTH Induced ([2]; Table I, 10 μg/mL): Active
Br.Br.Oc1cccc(CSc2nc3cnccc3[nH]2)c1 [Example 54, 3-[[(1H-Imidazo[4,5-c]pyridin-2-yl)thio]methyl]phenol Dihydrobromide] | Inactive | Inactive | 
COc1ccc(CSc2nc3cnccc3[nH]2)cc1C [Example 50, 2-[[(4-Methoxy-3-methylphenyl)methyl]thio]-1H-imidazo[4,5-c]pyridine] | Inactive |  | 
COc1ccc(C[S+]([O-])c2nc3cnccc3[nH]2)cc1C (stereo not drawn) [Example 51, 2-[[(4-Methoxy-3-methylphenyl)methyl]sulfinyl]-1H-imidazo[4,5-c]pyridine] |  |  | Inhibition of Bone Resorption, In Vivo ([1]; po, 672 h): Inactive
COc1ccccc1C[S+]([O-])c1nc2cnccc2[nH]1 (stereo not drawn) [Example 43, 2-[[(2-Methoxyphenyl)methyl]sulfinyl]-1H-imidazo[4,5-c]pyridine] |  |  | Inhibition of Bone Resorption, PTH Induced ([2]; Table I, 10 μg/mL): Active
Clc1cc2c(cc1CSc1nc3cnccc3[nH]1)OCO2 [Example 24, 2-[[(6-Chloro-1,3-benzodioxol-5-yl)methyl]thio]-1H-imidazo[4,5-c]pyridine] |  | Active | 
COc1cccc(C[S+]([O-])c2nc3cnccc3[nH]2)c1 (single isomer, unassigned) [Example 57] |  |  | Inhibition of Bone Resorption, PTH Induced [2, 4]: Active
COc1cccc(C[S+]([O-])c2nc3cnccc3[nH]2)c1 (single isomer, unassigned) [Example 58, [R-(-)]-2-[[(3-Methoxyphenyl)methyl]sulfinyl]-1H-imidazo[4,5-c]pyridine One Quarter Hydrate] |  |  | Inhibition of Bone Resorption, PTH Induced [2, 4]: Active
O=[N+]([O-])c1cccc(C[S+]([O-])c2nc3cnccc3[nH]2)c1 (stereo not drawn) [Example 49, 2-[[(3-Nitrophenyl)methyl]sulfinyl]-1H-imidazo[4,5-c]pyridine 0.15 Dimethylformamide] |  |  | Inhibition of Bone Resorption, In Vivo ([1]; po, 672 h): Inactive
O=[N+]([O-])c1cccc(CSc2nc3cnccc3[nH]2)c1 [Example 48, 2-[[(3-Nitrophenyl)methyl]thio]-1H-imidazo[4,5-c]pyridine] | Inactive |  | 
